ChEMBL document CHEMBL1201862, “PubChem BioAssay data set” (2004)
Activity calls are given as the source filed them.

Experiments:
[1] = target: T1, Sentrin-specific protease 8 (Homo sapiens, UniProt Q96LD8); format: functional
T1 sequence (Q96LD8 whole entry): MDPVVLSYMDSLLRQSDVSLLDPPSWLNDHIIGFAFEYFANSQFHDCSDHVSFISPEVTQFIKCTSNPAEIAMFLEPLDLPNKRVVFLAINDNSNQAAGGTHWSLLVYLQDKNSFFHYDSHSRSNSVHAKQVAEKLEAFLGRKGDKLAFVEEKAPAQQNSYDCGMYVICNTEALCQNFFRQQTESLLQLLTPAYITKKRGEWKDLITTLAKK

[2] = target: T1, Sentrin-specific protease 8; format: functional; remark: listed apart in the source
[3] = off-target signal loss in HeLa-CEM21 co-culture – HeLa F-luc CTL cells, cherry-picked, counter-screen for HIV-1 Env fusion inhibitor project, dose response (AID 652040); format: functional, cell-based;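 also: potency for signal decrease marking cytotoxic or nonspecific inhibition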
[4] = inhibitors of HIV Env-driven cell fusion, dose response, cherry-pick (AID 652057); format: functional, cell-based
[5] = ZM109 Env clade C HIV-1 fusion inhibitors, dose response, HeLa effector, CEM target cells, luciferase, cherry-pick (AID 652058); format: functional, cell-based
[6] = CEM21 lymphoblast cell cytotoxicity, dose response, cytotoxicity control for viral fusion inhibitor project, CellTiter-Glo luminescence, cherry-picked (AID 652042); format: functional, cell-based;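 also: potency for signal decrease meaning cytotoxicity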
[7] = inhibitors of clade B AD8 Env fusion, dose response, cell-based, cherry-pick (AID 652062); format: functional;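 also: luciferase signal from cell-cell fusion driven by HIV-1 clade B AD8 Env; potency is for inhibitors of fusion seen as a drop in luminescence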
[8] = HEK293T cell cytotoxicity, dose response, cytotoxicity control for HIV Vif inhibitor project, cherry-picks (AID 652208); format: functional, cell-based
Beta-lactamase [9] = target: Beta-lactamase (Pseudomonas aeruginosa, UniProt Q79MP6);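 also: biochemical dose-response test of metallo-beta-lactamase enzyme inhibition, read out by epi-absorbance; purified recombinant IMP-1 metallo-beta-lactamase with nitrocefin as substrate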
Chain of Beta-lactamase (Pseudomonas aeruginosa, UniProt Q79MP6) (Q79MP6 whole entry): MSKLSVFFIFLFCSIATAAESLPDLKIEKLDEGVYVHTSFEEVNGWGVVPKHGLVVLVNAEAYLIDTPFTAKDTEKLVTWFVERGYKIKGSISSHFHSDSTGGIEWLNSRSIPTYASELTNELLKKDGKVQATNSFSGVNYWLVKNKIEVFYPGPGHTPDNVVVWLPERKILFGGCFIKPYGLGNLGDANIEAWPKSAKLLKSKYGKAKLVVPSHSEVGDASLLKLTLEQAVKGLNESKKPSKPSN

Beta-lactamase [10] = target: Beta-lactamase (Salmonella choleraesuis (strain SC-B67), UniProt Q5J463)
Chain of Beta-lactamase (Salmonella choleraesuis (strain SC-B67), UniProt Q5J463) (Q5J463 whole entry): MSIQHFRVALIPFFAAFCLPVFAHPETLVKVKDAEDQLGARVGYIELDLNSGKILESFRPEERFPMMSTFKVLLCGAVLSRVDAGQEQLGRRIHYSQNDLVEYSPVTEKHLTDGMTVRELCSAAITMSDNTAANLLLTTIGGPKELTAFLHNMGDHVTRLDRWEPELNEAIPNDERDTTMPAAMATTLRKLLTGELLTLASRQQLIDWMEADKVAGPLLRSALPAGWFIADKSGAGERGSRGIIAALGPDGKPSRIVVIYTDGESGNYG

[11] = target: ALK tyrosine kinase receptor (Homo sapiens, UniProt Q9UM73); format: functional;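 also: ALK tested as one member of a kinase panel screen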
Chain of ALK tyrosine kinase receptor (Q9UM73 whole entry): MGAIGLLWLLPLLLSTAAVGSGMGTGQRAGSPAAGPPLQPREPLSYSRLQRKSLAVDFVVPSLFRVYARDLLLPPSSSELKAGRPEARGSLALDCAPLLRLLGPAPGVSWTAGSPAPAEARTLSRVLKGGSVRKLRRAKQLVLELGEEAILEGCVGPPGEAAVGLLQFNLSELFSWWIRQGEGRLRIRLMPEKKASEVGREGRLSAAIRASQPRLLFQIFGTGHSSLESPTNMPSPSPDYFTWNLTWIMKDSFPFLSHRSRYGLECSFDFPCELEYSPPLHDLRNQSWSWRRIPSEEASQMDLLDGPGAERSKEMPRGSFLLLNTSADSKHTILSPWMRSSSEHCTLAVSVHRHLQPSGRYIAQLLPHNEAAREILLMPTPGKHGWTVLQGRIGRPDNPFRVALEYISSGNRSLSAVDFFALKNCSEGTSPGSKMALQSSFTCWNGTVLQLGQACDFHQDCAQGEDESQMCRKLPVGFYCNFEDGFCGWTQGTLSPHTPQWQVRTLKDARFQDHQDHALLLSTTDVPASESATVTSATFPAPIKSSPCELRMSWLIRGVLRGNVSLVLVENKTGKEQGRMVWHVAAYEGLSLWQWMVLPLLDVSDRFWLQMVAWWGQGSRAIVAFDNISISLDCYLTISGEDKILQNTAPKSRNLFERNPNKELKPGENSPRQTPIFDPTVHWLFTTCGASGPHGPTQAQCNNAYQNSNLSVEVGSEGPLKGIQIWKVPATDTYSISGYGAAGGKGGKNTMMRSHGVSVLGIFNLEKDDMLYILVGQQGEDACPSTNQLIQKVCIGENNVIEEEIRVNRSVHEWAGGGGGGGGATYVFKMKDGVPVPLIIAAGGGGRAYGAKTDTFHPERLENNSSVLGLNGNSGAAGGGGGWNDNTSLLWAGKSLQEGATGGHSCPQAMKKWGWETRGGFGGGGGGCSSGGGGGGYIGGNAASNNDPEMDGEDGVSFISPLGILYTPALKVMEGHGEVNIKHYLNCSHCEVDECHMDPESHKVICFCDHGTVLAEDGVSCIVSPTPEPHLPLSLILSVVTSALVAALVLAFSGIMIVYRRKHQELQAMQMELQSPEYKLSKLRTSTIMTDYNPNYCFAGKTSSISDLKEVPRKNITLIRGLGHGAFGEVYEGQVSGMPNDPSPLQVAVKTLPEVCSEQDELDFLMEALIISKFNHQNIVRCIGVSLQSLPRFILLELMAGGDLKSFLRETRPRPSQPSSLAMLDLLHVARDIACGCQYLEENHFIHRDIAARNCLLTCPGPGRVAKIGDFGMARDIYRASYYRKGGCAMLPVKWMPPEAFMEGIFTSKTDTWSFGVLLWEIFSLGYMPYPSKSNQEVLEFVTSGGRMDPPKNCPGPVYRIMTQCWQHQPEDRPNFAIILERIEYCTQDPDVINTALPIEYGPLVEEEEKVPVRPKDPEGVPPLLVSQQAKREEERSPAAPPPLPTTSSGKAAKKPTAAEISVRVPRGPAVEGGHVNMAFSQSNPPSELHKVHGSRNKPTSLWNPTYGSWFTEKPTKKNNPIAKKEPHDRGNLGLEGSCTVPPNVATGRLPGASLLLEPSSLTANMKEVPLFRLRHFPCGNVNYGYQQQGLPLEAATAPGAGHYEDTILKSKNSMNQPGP

[12] = target: Cyclin-dependent kinase 19 (Homo sapiens, UniProt Q9BWU1); assay: Navigating the Kinome. Panel member name: CDC2L6; format: functional
Chain of Cyclin-dependent kinase 19 (Q9BWU1 whole entry): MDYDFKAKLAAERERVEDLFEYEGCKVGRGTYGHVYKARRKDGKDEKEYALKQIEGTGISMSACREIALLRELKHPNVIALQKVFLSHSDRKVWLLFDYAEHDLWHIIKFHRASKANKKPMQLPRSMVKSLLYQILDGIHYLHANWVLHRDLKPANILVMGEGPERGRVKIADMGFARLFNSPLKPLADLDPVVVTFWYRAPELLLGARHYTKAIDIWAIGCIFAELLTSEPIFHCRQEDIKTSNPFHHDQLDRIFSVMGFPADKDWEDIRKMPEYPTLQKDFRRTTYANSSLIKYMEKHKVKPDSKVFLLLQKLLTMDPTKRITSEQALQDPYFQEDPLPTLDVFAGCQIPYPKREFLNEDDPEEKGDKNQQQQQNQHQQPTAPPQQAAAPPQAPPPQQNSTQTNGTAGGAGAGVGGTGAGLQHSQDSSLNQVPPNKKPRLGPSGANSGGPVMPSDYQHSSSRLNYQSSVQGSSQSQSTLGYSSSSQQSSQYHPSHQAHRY

HEK293 [13] = assay: NOD1 signaling inhibitors, primary screen, cell-based, luminescence, uHTS (AID 1578); format: functional; conditions: Homo sapiens
Tumor necrosis factor = Tumor necrosis factor (Homo sapiens, UniProt P01375); assay: TNFa-triggered NF-kB activation inhibitors, SAR follow-up, cell-based, revised (AID 2337); format: functional
Chain of Tumor necrosis factor (P01375 whole entry): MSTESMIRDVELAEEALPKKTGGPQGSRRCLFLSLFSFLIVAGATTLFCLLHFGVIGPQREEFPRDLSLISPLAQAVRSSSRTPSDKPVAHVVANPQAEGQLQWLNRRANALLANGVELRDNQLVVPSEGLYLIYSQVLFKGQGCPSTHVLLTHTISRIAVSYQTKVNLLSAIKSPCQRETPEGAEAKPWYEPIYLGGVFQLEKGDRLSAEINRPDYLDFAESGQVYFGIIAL

HEK293 [14] = assay: cells; conditions: Homo sapiens
HEK293 [15] = assay: NOD2 signaling inhibitors in MDP-stimulated cells, cell-based, uHTS, luminescence (AID 2001); format: functional; conditions: Homo sapiens
HEK293 [16] = assay: cells; format: functional, cell-based; conditions: Homo sapiens
[17] = control 3'UTR Renilla luciferase suppression, dose response, counter-screen for Shn3 inhibitor project, cell-based, Clone20-Shn3RL, cherry-picked (AID 624133); format: functional
[18] = target: Nucleotide-binding oligomerization domain-containing protein 2 (Homo sapiens, UniProt Q9HC29); assay: NOD2 signaling inhibitors, cell-based, luminescence, uHTS, HEK293 (AID 1566); format: functional
Chain of Nucleotide-binding oligomerization domain-containing protein 2 (Q9HC29 whole entry, the tested form may be a part): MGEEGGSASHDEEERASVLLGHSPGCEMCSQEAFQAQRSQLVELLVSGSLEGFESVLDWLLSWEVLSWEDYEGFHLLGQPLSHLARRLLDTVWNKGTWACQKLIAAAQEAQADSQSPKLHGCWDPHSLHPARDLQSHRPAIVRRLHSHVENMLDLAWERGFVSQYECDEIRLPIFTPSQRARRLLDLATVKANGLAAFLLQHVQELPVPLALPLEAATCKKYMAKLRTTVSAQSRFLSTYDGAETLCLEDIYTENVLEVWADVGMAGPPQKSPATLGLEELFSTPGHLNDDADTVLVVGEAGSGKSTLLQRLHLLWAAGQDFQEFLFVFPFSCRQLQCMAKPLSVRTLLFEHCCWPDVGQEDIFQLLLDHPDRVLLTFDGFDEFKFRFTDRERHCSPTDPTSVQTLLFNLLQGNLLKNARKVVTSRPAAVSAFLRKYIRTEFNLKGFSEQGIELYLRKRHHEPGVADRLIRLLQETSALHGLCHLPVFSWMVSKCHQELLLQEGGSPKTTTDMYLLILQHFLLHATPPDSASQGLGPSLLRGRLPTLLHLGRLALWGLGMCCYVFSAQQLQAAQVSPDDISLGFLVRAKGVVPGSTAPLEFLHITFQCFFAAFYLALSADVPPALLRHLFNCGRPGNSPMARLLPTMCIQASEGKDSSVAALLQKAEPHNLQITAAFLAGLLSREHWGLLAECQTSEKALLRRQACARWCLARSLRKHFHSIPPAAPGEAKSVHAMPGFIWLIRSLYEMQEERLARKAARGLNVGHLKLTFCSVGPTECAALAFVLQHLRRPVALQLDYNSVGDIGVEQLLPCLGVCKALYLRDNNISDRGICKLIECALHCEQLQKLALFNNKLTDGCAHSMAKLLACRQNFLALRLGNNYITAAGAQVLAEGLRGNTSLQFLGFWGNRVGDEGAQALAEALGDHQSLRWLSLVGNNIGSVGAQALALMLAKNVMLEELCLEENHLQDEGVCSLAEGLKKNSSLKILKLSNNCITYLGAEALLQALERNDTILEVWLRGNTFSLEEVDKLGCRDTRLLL

HEK293 [19] = assay: cells; format: functional, cell-based; conditions: Homo sapiens; remark: listed apart in the source
[20] = HepG2 cell cytotoxicity, dose response, cytotoxicity control for Shn3 inhibitor project, CellTiter-Glo, cherry-picked (AID 624134); format: functional, cell-based
[21] = target: 72 kDa type IV collagenase (Homo sapiens, UniProt P08253); assay: Dose Response validation of uHTS RPN11 inhibitor hits using a MMP-2 Fluorescence assay.; format: functional
Chain of 72 kDa type IV collagenase (P08253 whole entry): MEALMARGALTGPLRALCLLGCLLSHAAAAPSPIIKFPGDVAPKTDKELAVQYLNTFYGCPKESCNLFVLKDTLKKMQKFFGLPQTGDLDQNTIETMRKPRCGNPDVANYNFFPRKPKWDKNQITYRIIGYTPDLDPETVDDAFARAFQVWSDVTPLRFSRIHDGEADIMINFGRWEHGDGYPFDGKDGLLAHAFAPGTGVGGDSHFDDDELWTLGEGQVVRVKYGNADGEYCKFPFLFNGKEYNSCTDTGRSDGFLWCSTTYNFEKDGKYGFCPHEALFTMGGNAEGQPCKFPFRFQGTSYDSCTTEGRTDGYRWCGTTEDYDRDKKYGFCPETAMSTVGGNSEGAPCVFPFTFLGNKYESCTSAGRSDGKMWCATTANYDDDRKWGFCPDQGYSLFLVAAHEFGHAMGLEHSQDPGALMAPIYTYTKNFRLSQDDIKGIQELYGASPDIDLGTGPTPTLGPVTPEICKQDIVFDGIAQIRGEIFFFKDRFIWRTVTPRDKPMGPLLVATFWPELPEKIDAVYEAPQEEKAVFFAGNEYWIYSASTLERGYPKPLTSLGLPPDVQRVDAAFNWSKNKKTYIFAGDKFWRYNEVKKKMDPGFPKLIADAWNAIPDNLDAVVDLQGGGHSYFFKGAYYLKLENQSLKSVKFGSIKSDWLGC

HEK293 [22] = assay: cells; format: functional, cell-based; conditions: Homo sapiens; remark: listed apart in the source
[23] = target: T2, Nucleotide-binding oligomerization domain-containing protein 1 (Homo sapiens, UniProt Q9Y239); assay: NOD1 signaling inhibitors, SAR follow-up, revised (AID 2333); format: functional
T2 sequence (Q9Y239 whole entry): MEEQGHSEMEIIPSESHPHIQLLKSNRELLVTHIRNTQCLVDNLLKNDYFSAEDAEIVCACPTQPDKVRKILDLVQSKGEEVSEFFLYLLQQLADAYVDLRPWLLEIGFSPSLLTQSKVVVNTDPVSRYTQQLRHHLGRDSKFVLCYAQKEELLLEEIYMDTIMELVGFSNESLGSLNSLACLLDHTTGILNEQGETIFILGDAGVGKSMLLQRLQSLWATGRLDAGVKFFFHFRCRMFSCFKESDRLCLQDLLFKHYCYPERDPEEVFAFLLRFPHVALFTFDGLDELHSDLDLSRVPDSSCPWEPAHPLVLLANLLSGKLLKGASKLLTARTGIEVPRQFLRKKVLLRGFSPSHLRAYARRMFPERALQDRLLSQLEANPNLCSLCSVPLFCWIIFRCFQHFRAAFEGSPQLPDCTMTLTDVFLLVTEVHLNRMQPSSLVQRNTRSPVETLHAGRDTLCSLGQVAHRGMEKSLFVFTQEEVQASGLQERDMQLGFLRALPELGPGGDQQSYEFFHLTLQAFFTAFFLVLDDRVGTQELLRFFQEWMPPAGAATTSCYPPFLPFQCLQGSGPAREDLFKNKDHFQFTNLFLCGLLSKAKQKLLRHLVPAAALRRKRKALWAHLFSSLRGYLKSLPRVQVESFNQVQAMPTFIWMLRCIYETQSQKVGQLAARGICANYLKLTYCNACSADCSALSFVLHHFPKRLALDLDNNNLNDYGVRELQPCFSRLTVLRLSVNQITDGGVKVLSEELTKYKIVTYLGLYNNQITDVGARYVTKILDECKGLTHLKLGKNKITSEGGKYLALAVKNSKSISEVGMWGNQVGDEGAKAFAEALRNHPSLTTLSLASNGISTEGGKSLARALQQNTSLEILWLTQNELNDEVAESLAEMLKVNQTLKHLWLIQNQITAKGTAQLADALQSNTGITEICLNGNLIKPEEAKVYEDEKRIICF

HEK293 [24] = assay: inhibitors of LMP1-driven NF-kB reporter, dose response, cell-based, HEK293, luciferase, cherry-pick (AID 588343); format: functional; conditions: Homo sapiens
[25] = target: 26S proteasome non-ATPase regulatory subunit 14 (Homo sapiens, UniProt O00487); assay: inhibition of proteasome subunit RPN11 – biochemical, fluorescence polarization, uHTS hits, confirmation (AID 602368); format: functional
Chain of 26S proteasome non-ATPase regulatory subunit 14 (O00487 whole entry): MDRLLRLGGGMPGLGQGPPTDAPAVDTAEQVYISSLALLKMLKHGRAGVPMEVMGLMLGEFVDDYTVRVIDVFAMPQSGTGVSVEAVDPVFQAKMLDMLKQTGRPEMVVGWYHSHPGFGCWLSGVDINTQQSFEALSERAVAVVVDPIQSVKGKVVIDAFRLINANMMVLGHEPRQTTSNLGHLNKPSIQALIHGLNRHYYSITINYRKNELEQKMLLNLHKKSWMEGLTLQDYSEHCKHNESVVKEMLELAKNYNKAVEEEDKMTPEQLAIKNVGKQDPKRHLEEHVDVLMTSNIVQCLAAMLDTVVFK

INS1 = assay: beta cell apoptosis inhibitors, cytokine rescue, dose response, luminescence, retest (AID 449756); format: functional, cell-based; conditions: Rattus norvegicus;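 also: cell death triggered by IL-1 beta plus TNF-alpha plus IFN-gamma mixture; protective hits raise ATP signal compared with cytokine alone wells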
[26] = Shn3 3'UTR reporter inhibitors, dose response, cell-based, Clone20 osteoblasts, firefly luciferase, cherry-picked (AID 624132); format: functional;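 also: firefly luciferase luminescence from reporter carrying the Shn3 3'UTR in osteoblasts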
Prothrombin = Prothrombin (Bos taurus, UniProt P00735); assay: thrombin inhibition, dose response, biochemical, fluorescence polarization, uHTS hits (AID 602369); format: functional

Structure (SMILES): O=C(COC(=O)c1ccc([N+](=O)[O-])o1)NCc1ccc2c(c1)OCO2
- IC50 [1]: 11.1 µM (active)
- IC50 [2]: 5.11 µM (active)

Structure (SMILES): C[C@H]1CNC(=O)c2c(C(=O)N3CCN(C(=O)OC(C)(C)C)CC3)ncn21
- AC50 [3]: 2.18 µM (active)
- AC50 [4]: 0.805 µM (active)
- AC50 [5]: 3.02 µM (active)
- AC50 [6]: 47.9 µM (active)
- AC50 [7]: 4.38 µM (active)

Structure (SMILES): COc1ccc(S(=O)(=O)Nc2cccc3ccc(O)cc23)cc1
- AC50 [8]: > 52 µM (inactive)

Structure (SMILES): CC(=O)Nc1ccc(N2C(=O)c3cccc4c(O)ccc(c34)C2=O)cc1
- IC50 (Beta-lactamase [9]): 13.7 µM (inactive)
- IC50 (Beta-lactamase [10]): 7 µM (active)

Structure (SMILES): Cc1nn(-c2nc3ccccc3[nH]2)c(O)c1C1OC(=O)c2ccccc21 (centres undefined)
- Ki [11]: 0.2 µM (active)
- Ki [12]: 2 µM (active)

Structure (SMILES): Cc1ccc(NC(=O)C2CCN(S(=O)(=O)c3ccc4c(c3)NC(=O)C(C)S4)CC2)cc1Cl (centres undefined)
- EC50 (HEK293 [13]): 5.35 µM (active)
- IC50 (Tumor necrosis factor): 2.84 µM (active)
- IC50 (HEK293 [14]): 5.08 µM (active)
- IC50 (HEK293 [15]): 2.94 µM (inactive)
- IC50 (HEK293 [16]): 2.72 µM (active)
- AC50 [17]: 2.48 µM (active)
- EC50 [18]: 8.36 µM (active)
- IC50 (HEK293 [19]): 4.25 µM (active)
- AC50 [20]: 6.82 µM (active)
- IC50 [21]: > 100 µM (inactive)
- IC50 (HEK293 [22]): > 20 µM (inactive)
- IC50 [23]: 2.87 µM (active)
- AC50 (HEK293 [24]): 15.3 µM (active)
- IC50 [25]: 49.4 µM (active)
- AC50 (INS1): 3.7 µM (active)
- AC50 [26]: 2.83 µM (active)
- IC50 (Prothrombin): 46 µM (active)
